The results in this text go back to patent US20250251402A1, “METHODS OF DETECTING MOLECULAR AGGREGATES USING IMAGE CORRELATION SPECTROSCOPY (ICS)” (The General Hospital Corporation, priority 2022, published 2025).

Format in all cases: cell-based
Assay [1] relates to HT1080 cells. In words: γH2AX immunofluorescence ICS DA and nuclear intensity in HT1080 cells. The note with it: HT1080, 10 nM GMX1778 for 24 hours vs control. As for the experimental part: Cells were plated in 8-well […] slides (Thermo or Ibidi) to achieve 50% confluence overnight. Cells were then treated and fixed with 4% paraformaldehyde in PBS at room temperature for 10 minutes. Antibody staining was performed according to the manufacturers protocol. Following fluorescent secondary antibody labeling, prolong gold with DAPI (Cell Signaling Technologies) was added and samples were stored for up to 1 week prior to imaging.
ICS analysis was performed in MATLAB as previously described (41). Briefly, nuclei were segmented from the DAPI channel with the MATLAB function, imbinarize, converting the greyscale image to a binary dependent on an automatically defined threshold. The MATLAB function, regionprops, was used to identify single nuclei as objects. Each nucleus was used as a mask to perform ICS analysis on the antibody-stained channel, within size limitations for a nucleus (objects >400 and <3000 pixels). To ensure the analysis of antibody stained nuclei, nuclei under an average intensity of 200 au after background subtraction were excluded. The spatial autocorrelation functions were calculated using Fourier methods, then fit to a 2D Gaussian using a nonlinear least-squares algorithm (41). Using the outputs of the fitting, the mean number of independent emitting fluorescent entities per focal spot area and subsequently the DA were determined (59). DA measurements across experiments were normalized by the control in each dataset. […] Any DA values exceeding 3 standard deviations from the mean were defined as incorrectly segmented and removed. Data were plotted in Prism and analysis performed in Prism or Excel.

Assay [2] has as its system HCC1937 cells. In words: 53BP1-mApple condensate anisotropy (homo-FRET) and intensity in HCC1937 cells. As for the experimental part: All fluorescence imaging was performed on an Olympus FV1000 multiphoton/confocal microscope. Anisotropy measurements were performed through custom modifications to the imaging system as previously described (30). Briefly, linear polarization of two photon excitation light at 910 nm (MaiTai femtosecond laser, Spectra Physics) was controlled by a glan-thompson prism and half wave plate. […] was collected in orthogonal orientations through two detectors, parallel and perpendicular to excitation polarization, through a polarizing beam splitter that replaced a dichroic mirror in the emission filter cube. The alignment and detector gain and noise were validated each imaging session through measurements of a standard slide. Images were taken with an Olympus 25× XLPlan N objective, NA 1.05, and 3× digital zoom. Confocal imaging was performed with an Olympus XLUMPlanFL N 20× objective, NA 1.00 with chromatic correction, and 3× digital zoom.
Cells were grown on 12 mm round, uncoated, sterilized glass coverslips in 24-well plates for 24 hours. Cells were treated with PARPi and 100 μM TMZ for 1 hour or 10 nM GMX1778 overnight followed by 100 μM TMZ for 1 hour. TMZ was added to stimulate new DNA damage induced condensates in the presence of PARPi or NAD″ depletion. Cells were then transferred to the microscope for anisotropy imaging. Images were analyzed in MATLAB. Nuclei were segmented through intensity thresholding and condensates were segmented through further intensity thresholding with a higher threshold. Values of segmented nuclei and condensates were determined through the regionprops function. Segmentation was corrected through area restrictions to ensure that regions of interest were isolated condensates. The thresholding parameters were consistent throughout experiments. The average intensity and anisotropy of each segmented nuclei or condensate was then calculated. Data were plotted in Prism and analysis performed in Prism or Excel.

Assay [3] has as its system WPMY-1 cells. In words: Autocorrelation (ICS DA) of 53BP1 in phenotypic screen images, WPMY-1. As for the experimental part:
(§1) Images from the original study (8) were accessed through the Image Data Resource (32) API on the Open Microscopy environment. Nuclei were segmented using StarDist (33) on the BFP channel image. Segmented nuclei were then analyzed by image correlation spectroscopy autocorrelation (34) in the TP53BP1 channel and the average degree of aggregation (DA) was calculated.
(§2) We accessed the original phenotypic screen (8) images through the IDR API on the Open Microscopy server. The screen contained three different cell lines that had endogenous TP53BP1 labeled GFP as a marker protein. We first identified all the images from these three cell lines (>60,000 images in total), then segmented the nuclei of each cell using the BFP channel image. Segmented nuclear regions were then transferred to the TP53BP1 image and image autocorrelation was performed on each nucleus. The degree of aggregation (DA, a measurement of fluorophore clustering) for each nucleus was then averaged to produce an overall image 53BP1 DA that corresponded to the compound and compound concentration. The dataset contained repeats of four different doses for each compound. The activity of each compound in each cell line was then determined by fitting a linear regression to the DA as a function of compound concentration. The slope and significance versus the null hypothesis (slope equal to zero) of DA vs. concentration was then determined.
(§3) 53BP1 DA is a measure of protein labeled fluorophore clustering within the nucleus. […] Increases in 53BP1 recruitment can occur either through induction of DNA damage or altered repair pathways, such as shifting the response from homologous recombination to non-homologous end joining.

Assay [4] relates to 53BP1. In words: Autocorrelation (ICS DA) of 53BP1 in phenotypic screen images, cell line not specified. The note with it: at least one cell line of A549, WPMY-1, HepG2. As for the experimental part:
as §1, with “calculated. […] Active compounds were defined as having significant (p<0.05) non-zero linear regressions, either negative or positive. The activity score was determine by summing the direction of each active compound and dividing by the total number of compounds in the MoA.” for “calculated.”
as §2, with “determined. Active compounds were defined as those having a significant (p<0.05) slope of DA vs. concentration.” for “determined.”
53BP1 DA is a measure of protein labeled fluorophore clustering within the nucleus. […] Yet, given the highly characterized role of 53BP1 in the DNA damage response (9), recruitment to DNA damage response foci is likely the most prominent driver of measured activity.

The subject of assay [5] is SKOV3 cells. In words: γH2AX immunofluorescence in SKOV3 cells (intensity, Imaris Spots, ICS TNoP and DA). The source says: (§4) For the ICS analysis, nuclei were segmented from the DAPI channel using a watershed approach in MATLAB. Briefly, we applied a difference of gaussians for size-based feature extraction of nuclei in the image (upper gaussian σ=100, lower gaussian σ=2-5 dependent on cell size). This feature enhanced image was then binarized to create a primary mask (using the function imbinarize) and connected components under 100 pixels were removed (using the function bwareaopen). We then created a distance transform of the resulting binary image (using the function bwdist). Seed points were determined by finding the regional maximum of a gaussian filtered image, with a gaussian σ of appropriate size for seed point detection (σ×7 or 8 dependent on cell size). The seed points were applied to the distance transform, and we applied the watershed function to the resulting image to obtain masks for each nucleus (extracted using the function regionprops).
(§5) Using the nucleus masks, we performed ICS analysis on the antibody-stained channel, within size limitations for a nucleus (objects >400 and <2400 pixels). Intensity, DA and TNOP were calculated for each cell. In this analysis, since the ROI is defined by the nucleus mask (segmented from nuclear signal using DAPI staining), TNoP represents the total number of particles per nucleus, with the image area being the number of pixels in each nuclear mask.
(§6) Measurements across experiments were normalized by the control in each dataset. […] Data were plotted in Prism and statistical analysis was performed in Excel.
(§7) Imaris spots analysis were performed with Imaris 9.8 with background subtraction, using a spot size of 1 μm that was measured from the smallest distinguishable foci from the control image. For images with multiple nuclei, ImarisCell was used with the detection type “cell and vesicles”, where the nucleus in the DAPI channel was modelled as the “cell” and antibody-labeled foci were modelled as the “vesicles”. This enabled us to count the number of foci per nucleus for multiple cells. In each dataset, the automatic “quality” threshold was determined from the control image and the same threshold was used for every image in the dataset to be able to compare the outputs across datasets. Similar to the ICS analysis, only cells with an area between 400-2400 voxels were included for analysis.
(§8) All chemicals were purchased from Sigma unless otherwise noted. All drugs were purchased from Selleck Chemicals. Cells were cultured in media supplemented with 10% fetal bovine serum and 1% penicillin/streptomycin. OVCA429 were originally obtained from Dr. Michael Birrer and cultured in DMEM. SKOV3 was obtained from ATCC and cultured in RPMI. For MMS treatment, cells were incubated for 6 hours before fixation with 4% formaldehyde, whereas for treatment with PARP inhibitors, cells were incubated for 24 hours before fixation.
(§9) Cells were plated in 8-well slides (Fisher) to achieve 50% confluence overnight. Cells were then treated and fixed with 4% formaldehyde in PBS at room temperature for 10 minutes. Antibody staining was performed according to the manufacturers protocol (Cell Signaling Technologies or Abcam). Primary antibodies used were γH2AX (CST, #2577), RPA1 (CST, #2267) and RAD51 (Abcam, 63801), with Anti-rabbit IgG Fab2 Alexa Fluor 647 (CST, #4414) as the secondary fluorescent antibody. After antibody labeling, prolong gold with DAPI (CST) was added and samples were stored for up to 1 week prior to imaging. Confocal imaging was performed on an Olympus FV1000 multiphoton/confocal microscope using an Olympus XLUMPlanFL N 20× objective, NA 1.00 with chromatic correction, and 3× digital zoom. DAPI was excited with a 405 nm laser, while Alexa Fluor 647 was excited with a 635 nm laser. A multiband (DM 405/488/561/633 nm) dichroic mirror was used to direct the excitation laser and collect emission. […]

For assay [6], the system named is OVCA429 cells. In words: γH2AX immunofluorescence in OVCA429 cells (intensity, Imaris Spots, ICS TNoP and DA).
Source text: as §4, §5, §6, §7, §8, §9

Assay [7] has as its system A549 cells. In words: Autocorrelation (ICS DA) of 53BP1 in phenotypic screen images, A549. On the procedure: as §1, §2, §3
Assay [8] concerns HepG2 cells. In words: Autocorrelation (ICS DA) of 53BP1 in phenotypic screen images, HepG2. As for the experimental part:
as §1, §2, §3

[9] abbreviates: HCC1937, 10 nM GMX1778 overnight then 100 μM TMZ 1 hour.

As to `N#CN=C(NCCCCCCOc1ccc(Cl)cc1)Nc1ccncc1` [GMX1778], in assay [1], the “γH2AX ICS DA” value is reported as “significantly increased” and the “γH2AX levels (nuclear intensity)” value is listed as “no significant difference”. Also, in assay [2] (setting [9]), the “53BP1-mApple condensate anisotropy vs control” value is recorded as “significantly lowered condensate anisotropy” and the “53BP1-mApple condensate intensity vs control” value is given as “without impacting condensate intensity”.

With `S=P(N1CC1)(N1CC1)N1CC1` [thiotepa], the “53BP1 DA vs. concentration regression (53BP1 recruitment)” value (“53BP1 DA vs. concentration regression” below) in assay [3] is given as “strong inducers of 53BP1 recruitment”.

Consider `Cc1nc2c(O)cccc2c(=O)[nH]1` [NU 1025], for which, in assay [4], the “53BP1 DA vs. concentration regression” value was “increased 53BP1 recruitment”.

For `O=C(c1cc(Cc2n[nH]c(=O)c3ccccc23)ccc1F)N1CCN(C(=O)C2CC2)CC1` [olaparib], the “ICS TNoP of γH2AX, dose dependence” value in assay [5] (SKOV3) was “slight TNOP dose dependence”. Further, the “Number of γH2AX spots determined by Imaris” value in assay [5] (SKOV3, 100 μM olaparib vs 10 μM dose) is reported as “not significant compared to the 10 μM dose”. In assay [6] (OVCA429), the “ICS DA of γH2AX, dose dependence” value was “full dose dependent increases in γH2AX clustering” and the “Imaris Spots analysis of γH2AX, dose dependence” value was “able to capture olaparib dose dependence”. Besides, the “γH2AX intensity, dose dependence” value in assay [6] (OVCA429, PARP inhibitors) is listed as “did not show a dose dependence”. In assay [2] (HCC1937, 1 μM PARPi and 100 μM TMZ for 1 hour), the “53BP1-mApple condensate anisotropy vs control” value is “significantly lower condensate anisotropy compared to control”.

Take `CCCOc1ccc(CCc2nc3cc(-c4c(C)noc4C)ccc3n2CCN2CCOCC2)cc1` [PF CBP1]: the “53BP1 DA vs. concentration regression” value in assay [3] is “strong activity”.

Regarding `Cc1nc(NC(=O)N2CCC[C@H]2C(N)=O)sc1-c1csc(C(C)(C)C)n1` [A66], in assay [3], the “53BP1 DA vs. concentration regression” value was “strong inducers of 53BP1 recruitment”.

As for `Cc1cc(C)c(C)c(S(=O)(=O)Nc2ccc(N3CC[C@H](C(=O)O)C3)c3ccccc23)c1C` [RA839], the “53BP1 DA vs. concentration regression” value in assay [3] was “two of the strongest 53BP1 recruitment-reducing compounds”.

`NC(=O)c1cccc(N)c1` [3-aminobenzamide]: the “53BP1 DA vs. concentration regression” value in assay [7], in assay [3] and in assay [8] was “reduced 53BP1 recruitment” each time.

On to `Cc1c(-c2cnccn2)ssc1=S` [oltipraz], for which, in assay [3], the “53BP1 DA vs. concentration regression” value was “two of the strongest 53BP1 recruitment-reducing compounds”.

As to `COc1ccccc1S(=O)(=O)Nc1ccc2c(c1)CN(C)C(=O)N2` [PFI-1], the “53BP1 DA vs. concentration regression” value in assay [7] and in assay [8] was “strong positive activity” in each case.

With `O=C(CCCCCCC(=O)Nc1ccccc1)NO` [SAHA], the “53BP1 DA vs. concentration regression” value in assay [3] is “strong inducers of 53BP1 recruitment”.

For the compound `NC(=O)c1cccc(-c2cc(Nc3ccc(OC(F)(F)F)cc3)ncn2)c1` [GNF 2], the “53BP1 DA vs. concentration regression” value in assay [7] and in assay [8] was “reduced 53BP1 recruitment” each time.
